Literature values as cited in patent publication US20110236508A1, “L-ARGININE-BASED FORMULATION FOR ORAL ABSORPTION” (priority 2008, published 2011).

How the values were obtained:
[1] = tested on: coronary endothelial dysfunction; conditions: oral 3 g TID, after 6 months
[2] = tested on: brachial artery
[3] = tested on: mice deficient in Apo-E; conditions: 6% L-arginine drinking solution
[4] = tested on: peripheral arterial disease; conditions: 8 g, bid, 14 days
[5] = tested on: coronary artery disease; conditions: 9 g/day orally for 6 months
[6] = tested on: anginal patients; conditions: 6 g/day
[7] = 24 hypercholesterolemic patients, 14 g/day for 12 weeks

## N=C(N)NCCC[C@H](N)C(=O)O [L-arginine]
[1]; compared with placebo
  patients' symptoms scores: improvement
  plasma endothelin concentrations: decrease
[1]; P<0.05 versus placebo
  coronary blood flow in response to acetylcholine: 149±20%
[2]; 8 g p.o. two times daily for 14 days, 12 healthy old subjects, p<0.0001
  flow-mediated dilation (FMD) of the brachial artery: 5.7+/−1.2%
[2]; after 8 g p.o. two times daily for 14 days, versus 57.4+/−5.0
  plasma levels of L-arginine: 114.9 ± 11.6 µM
[2]; during treatment, 8 g p.o. two times daily for 14 days
  ADMA plasma concentrations: remained unchanged
[3]
  increase in treadmill exercise performance: 61%
[4]
  improvement in walking distance: 150%
[5]
  decrease in anginal episodes: 70%
  improvement of acetylcholine-induced coronary vascular relaxation: 149%
[6]
  exercise tolerance: improved
  time to 1 mm ST-segment depression during exercise-stress testing: increased
[7]
  adverse effects: no reports of any adverse effects
